Source: patent US5705498A, “Piperidine derivatives as 5-HT4 receptor antagonists” (SmithKline Beecham plc., priority 1992, dated 1998)

Target: T1, 5-HT4 receptor (Cavia porcellus, UniProt O70528)
T1 construct: Longitudinal muscle-myenteric plexus preparations, approximately 3 cm long, are obtained from the distal colon region; from tissue; host or cells: guinea-pig distal colon, longitudinal muscle-myenteric plexus preparation
Test: Guinea pig colon longitudinal muscle-myenteric plexus, antagonism of 5-HT-evoked contraction
Settings: guinea-pig distal colon; contraction evoked by 5-HT; methiothepin 10^-7 M and granisetron 10^-6 M present; read-out: pIC50 (-log concentration of antagonist which reduces the contraction by 50%) (converted)
Experimental: Male guinea-pigs, weighing 250-400 g are used. Longitudinal muscle-myenteric plexus preparations, approximately 3 cm long, are obtained from the distal colon region. These are suspended under a 0.5 g load in isolated tissue baths containing Krebs solution bubbled with 5% CO2 in O2 and maintained at 37° C. In all experiments, the Krebs solution also contains methiothepin 10^-7 M and granisetron 10^-6 M to block effects at 5-HT1, 5-HT2 and 5-HT3 receptors.
After construction of a simple concentration-response curve with 5-HT, using 30 s contact times and a 15 min dosing cycle, a concentration of 5-HT is selected so as to obtain a contraction of the muscle approximately 40-70% maximum(10^-9 M approx). The tissue is then alternately dosed every 15 min with this concentration of 5-HT and then with an approximately equi-effective concentration of the nicotine receptor stimulant, dimethylphenylpiperazinium (DMPP). After obtaining consistent responses to both 5-HT and DMPP, increasing concentrations of a putative 5-HT4 receptor antagonist are then added to the bathing solution. The effects of this compound are then determined as a percentage reduction of the contractions evoked by 5-HT or by DMPP. […] A compound which reduces the response to 5-HT but not to DMPP is believed to act as a 5-HT4 receptor antagonist.

T1 sequence (O70528 whole entry): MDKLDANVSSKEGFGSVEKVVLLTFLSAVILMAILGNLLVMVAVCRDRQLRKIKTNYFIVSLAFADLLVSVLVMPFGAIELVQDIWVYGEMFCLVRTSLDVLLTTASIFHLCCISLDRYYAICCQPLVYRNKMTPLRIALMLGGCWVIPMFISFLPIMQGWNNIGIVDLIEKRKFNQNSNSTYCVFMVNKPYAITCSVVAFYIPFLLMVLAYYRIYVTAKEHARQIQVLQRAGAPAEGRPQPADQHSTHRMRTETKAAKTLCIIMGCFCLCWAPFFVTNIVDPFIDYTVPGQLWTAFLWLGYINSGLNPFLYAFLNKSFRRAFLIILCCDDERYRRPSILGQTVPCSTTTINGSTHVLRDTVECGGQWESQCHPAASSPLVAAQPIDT

SMILES: Nc1c(Cl)cc(C(=O)OCC2CCN(Cc3cccnc3)CC2)c2c1OCCO2 [Example E1, 5-(1-(3-Pyridylmethyl)-4-piperidinyl)methyl-8-amino-7-chloro-1,4-benzodioxancarboxylate]
- IC50: < 1 nM
